Laboratory results published in US20080139534A1, “Bisbenzamidines and bisbenzamidoximes for the treatment of human African trypanosomiasis” (XAVIER UNIVERSITY OF LOUISIANA, priority 2006, published 2008).
Read-outs that look alike come from different tables or passages of the source. Marks after values point to notes of the source that are not given here.

Columns and labels:
[1] = tested on: T. b. brucei Lab 110 EATRO; assay: In vitro trypanocidal activity, bloodforms in HMI-18 medium, Coulter counts; format: cell-based, Trypanosoma brucei brucei; conditions: 48 h exposure, bloodforms, read-out: Lab 100 EATRO IC50
Experimental: (§1) The compounds were tested against trypanosome isolates grown as blood forms in HMI-18 medium containing 20% horse serum in 24 well microplates at 37° C. in 5% CO2. Wells were inoculated with 1×10^5 trypanosomes. […] One-half the volume was replaced daily. Cell counts were made daily with a Coulter Counter, Model Z1 (Beckman Coulter, Miami, Fla., USA). Cells were diluted with Isoton I buffer (Beckman Coulter) and the aperture was standardized at 5.14 μm. Background checks were performed daily on 1:10 dilutions of medium. Counts, normalization, and coincident counts were accounted for by the standardized Coulter analysis program. Occasionally, hemocytometer counts were performed as a check on the validity of the Coulter program. IC50 values were determined after 48 h from semi-log plots and the values are the result of duplicate determinations. Initially a broad concentration curve was used and then a close concentration curve from which IC50 values were determined. Assays were done in duplicate and each point was the average of the two. Control cells grew to 5×10^6/ml.
(§2) Coulter counts were made daily and IC50 values determined after 48 hours exposure.

[2] = tested on: T. b. rhodesiense KETRI 243; assay: as above; format: cell-based, Trypanosoma brucei rhodesiense; conditions: 48 h exposure
Experimental: as §1, §2

calf thymus DNA = assay: Thermal denaturation study, DNA binding affinity (ΔTm); conditions: 1:5 compound to base pair ratio;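 note: shift in midpoint melting temperature of calf thymus DNA thermal denaturation curves caused by compound binding, values averaged over at least two determinations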
Experimental: (§3) The binding affinity was measured by determining the change in the midpoint (Tm) of the thermal denaturation curves of calf thymus DNA as well as poly(dA-dT) at a 1:5 compound to base pair ratio.

poly(dA-dT) = assay: as above; conditions: 1:5 compound to base pair ratio;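 note: shift in the midpoint temperature of the thermal melting curve of poly(dA-dT), each value the mean of two or more independent determinations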
Experimental: as §3

[3] = tested on: T. b. brucei Lab 110 EATRO; assay: In vivo efficacy in infected mice; parameters: species or system Trypanosoma brucei brucei
Experimental: Female Swiss-Webster mice (weight, 20 g) were infected (intraperitoneally) with 2.5×10^5 trypanosomes from rat blood, and the infection was allowed to develop for 24 h before drug treatment was begun. Groups of three mice each were injected (intraperitoneally) with each drug concentration. All of the experiments included a group of untreated controls. […] Parasitemia of animals dying of infection averaged 0.5-1.0×10^9/mL of blood. These infections are very predictable and daily counts were not done because of the labor involved. […] Animals were monitored weekly for parasites in tail vein blood smears. Mice were considered cured if they survived more than 30 days after the death of the last control with no parasites in tail vein blood smears. MSD (mean survival in days) was also recorded for each group. It is the average time of survival of the animals in the group, exclusive of cured animals.
Mice were infected with 250,000 parasites and dosing commenced 24 h. post infection. Mice were separated into groups of three and given single i.p doses for 3 days unless otherwise noted. Infected untreated controls were used for each experiment. Mice were considered cured if surviving more than 30 days beyond death of controls without parasites in tail vein blood smears. MSD, mean survival in days, exclusive of cured animals.

[4] = Trypanosoma brucei, RHODESIENSE
[5] = mice, 1, 2.5, 5, 10, 15, 25 mg/kg/day i.p. for 3 days (all doses failed to cure)
[6] = mice, 1, 2.5, 5, 10, 15, 25 mg/kg/day i.p. for 3 days (all doses)
[7] = mice, 1 mg/kg/day i.p. for 3 days
[8] = mice, 5 mg/kg/day i.p. for 3 days
[9] = mice, 10 mg/kg/day i.p. for 3 days

SMILES | IC50 [1] [nM] | IC50 [2] [nM] | DNA Binding Δ Tm Calf thymus (calf thymus DNA) [°C] | DNA Binding Δ Tm Poly (dA-dT) (poly(dA-dT)) [°C] | further results
C(=C1CCCN(c2ccc(C3=NCCN3)cc2)C1)c1ccc(C2=NCCN2)cc1.Cl.Cl (mixture of isomers) [3SF] | 71 | 84 | 12.0 | 15.0 | 
Cl.Cl.c1cc(C2=NCCN2)ccc1CC1CCCN(c2ccc(C3=NCCN3)cc2)C1 (centres unmarked) [4CF] | 86 | 85 | 9.9 | 14.1 | 
Cl.Cl.N=C(N)c1ccc(N2CCCN(c3ccc(C(=N)N)cc3)CC2)cc1 [7AM] | 2.15 | 2.7 | 15.0 | 23.1 | 
O=C(Nc1ccc(C2=NCCN2)cc1)C1CC1C(=O)Nc1ccc(C2=NCCN2)cc1 (centres unmarked) [8IM] | > 1000 | 440 | 6.0 | 9.6 | 
Cl.Cl.N=C(NC1CC1)c1ccc(N2CCN(c3ccc(C(=N)NC4CC4)cc3)CC2)cc1 [63C, N,N′-Dicyclopropyl 4,4′-(1,4-piperazinediyl)bisbenzenecarboxidamide] |  |  | 14.5 | 23.9 | 
CCCNC(=N)c1ccc(N2CCN(c3ccc(C(=N)NCCC)cc3)CC2)cc1.Cl.Cl [63N, N,N′-Dipropyl 4,4′-(1,4-piperazinediyl)bisbenzenecarboxidamide] |  |  | 17.0 | 26.0 | IC50 ([1]; Trypanosoma brucei): 35 nM; IC50 [2, 4]: 32.5 nM
Cl.Cl.N=C(NC1CC1)c1ccc(N2CCCN(c3ccc(C(=N)NC4CC4)cc3)CC2)cc1 [73C] | 870 | 810 | 15.3 | 23.6 | 
CCCCNC(=N)c1ccc(N2CCCN(c3ccc(C(=N)NCCCC)cc3)CC2)cc1.Cl.Cl [74N] | 180 | 79 | 11.8 | 13.3 | 
Cl.Cl.c1cc(N2CCN(c3ccc(C4=NCCCN4)cc3)CC2)ccc1C1=NCCCN1 [632N] |  |  | 12.2 | 17.9 | 
Cl.Cl.c1cc(N2CCCN(c3ccc(C4=NCCCN4)cc3)CC2)ccc1C1=NCCCN1 [732N] |  |  | 15.5 | 21.3 | 
N=C(N)c1ccc(OCCCCCOc2ccc(C(=N)N)cc2)cc1 [Pentamidine, reference compound] |  |  | 11.1 | 20.6 | IC50 [2, 4]: 2.32 nM; # Cured/#Treated (%) ([3]; mice, 1, 2.5, 5, 10, 25 mg/kg/day i.p. for 3 days (all doses cured)): 5/5*; MSD ([3]; mice, 1, 2.5, 5, 10, 25 mg/kg/day i.p. for 3 days (all doses)): >30 days
N#Cc1ccc(N2CCN(c3ccc(C#N)cc3)CC2)cc1 [compound 0101] | 2890 | 1050 | 0.1 | −0.3 | 
O=Cc1ccc(N2CCN(c3ccc(C=O)cc3)CC2)cc1 [compound 0107] |  |  | −0.2 | 0.0 | 
CN1CCN(C)C1c1ccc(N2CCN(c3ccc(C4N(C)CCN4C)cc3)CC2)cc1 [compound 0108] | 6800 | 2320 | 2.4 | 1.8 | 
c1ccc(N2CCN(c3ccccc3)C2c2ccc(N3CCN(c4ccc(C5N(c6ccccc6)CCN5c5ccccc5)cc4)CC3)cc2)cc1 [compound 0109] | 120 | 335 | −1.2 | 0.0 | 
c1cc(N2CCN(c3ccc(C4OCCO4)cc3)CC2)ccc1C1OCCO1 [compound 0111] | 5800 | 2300 | −1.2 | 0.1 | 
CN=C(N)c1ccc(N2CCN(c3ccc(C(N)=NC)cc3)CC2)cc1 [compound 0112, N,N′-Dimethyl 4,4′-(1,4-piperazinediyl)bisbenzenecarboxidamide] | 205 | 33 | 15.2 | 22.2 | 
c1ccc2[nH]c(-c3ccc(N4CCN(c5ccc(-c6nc7ccccc7[nH]6)cc5)CC4)cc3)nc2c1 [compound 0115, 1,4-bis[4-(1H-benzymidazol-2-yl)phenyl]piperazine] |  |  | 0.1 | 2.0 | IC50 ([1]; Trypanosoma brucei): 1150 nM; IC50 [2, 4]: 5800 nM
N=C(NO)c1ccc(N2CCN(c3ccc(C(=N)NO)cc3)CC2)cc1 [compound 0125, N,N′-Dihydroxy 4,4′-(1,4-piperazinediyl)bisbenzenecarboxidamide] |  |  | 0.8 |  | IC50 ([1]; Trypanosoma brucei): 1020 nM; IC50 [2, 4]: 1920 nM; # Cured/#Treated (%) ([3]; mice, 50 mg/kg/day (po)): 0/3; MSD ([3]; mice, 50 mg/kg/day (po)): 5 days; # Cured/#Treated (%) ([3]; mice, 100 mg/kg/day (po)): 0/3; MSD ([3]; mice, 100 mg/kg/day (po)): 5 days; MSD ([3]; mice, 100 mg/kg/day (split dose, po; 9am and 4 pm)): >30 days
CCCCCNC(=N)c1ccc(N2CCN(c3ccc(C(=N)NCCCCC)cc3)CC2)cc1.Cl.Cl [compound 0127] | 3 |  | 16.9 | 22.5 | 
CCCCCCCCNC(=N)c1ccc(N2CCN(c3ccc(C(=N)NCCCCCCCC)cc3)CC2)cc1.Cl.Cl [compound 0130] | 3.65 | 19 | 4.2 |  | # Cured/#Treated (%) ([3]; mice, 1, 2.5, 5, 10, 15, 20 mg/kg/day i.p. for 3 days (all doses failed to cure)): 0/3^a; MSD ([3]; mice, 1, 2.5, 5, 10, 15, 20 mg/kg/day i.p. for 3 days (all doses)): 5 days

SMILES | IC50 [1] [nM] | IC50 [2] [nM] | DNA Binding Δ Tm Calf thymus (calf thymus DNA) [°C] | DNA Binding Δ Tm Poly (dA-dT) (poly(dA-dT)) [°C] | further results
CCCCCCCCCCNC(=N)c1ccc(N2CCN(c3ccc(C(=N)NCCCCCCCCCC)cc3)CC2)cc1.Cl.Cl [compound 0131] | 180 | 220 | 1.3 |  | # Cured/#Treated (%) [3, 5]: 0/3^a; MSD [3, 6]: 5 days
Cl.Cl.N=C(NC1CCCCCCC1)c1ccc(N2CCN(c3ccc(C(=N)NC4CCCCCCC4)cc3)CC2)cc1 [compound 0134] | 2.3 |  | 12.6 | 15.7 | 
Cl.Cl.N=C(NC1CCC1)c1ccc(N2CCN(c3ccc(C(=N)NC4CCC4)cc3)CC2)cc1 [compound 0143] | 6 | 51 | 16.4 |  | # Cured/#Treated (%) [3, 7]: 0/3; MSD [3, 7]: 5 days; MSD [3, 8]: 11 days; MSD [3, 9]: >30 days
N=C(NO)c1ccc(NC(=O)c2cccc(C(=O)Nc3ccc(C(=N)NO)cc3)c2)cc1 [compound 0323] |  |  | 0.6 | 0.1 | 
N=C(NO)c1ccc(NC(=O)c2ccc(C(=O)Nc3ccc(C(=N)NO)cc3)cc2)cc1 [compound 0333] |  |  | 0.6 | 0.0 | 
N=C(NO)c1ccc(C(=O)Nc2cccc(NC(=O)c3ccc(C(=N)NO)cc3)c2)cc1 [compound 0343] |  |  | −0.3 | 0.1 | 
N=C(NO)c1ccc(C(=O)Nc2ccc(NC(=O)c3ccc(C(=N)NO)cc3)cc2)cc1 [compound 0353] |  |  | 0.4 | 0.1 | 
N=C(N)c1ccc(OC(=O)c2ccc(C(=O)Oc3ccc(C(=N)N)cc3)cc2)cc1 [compound 0432] | 4300 | 3100 | 9.9 |  | 
N=C(N)c1ccc(OCc2cccc(COc3ccc(C(=N)N)cc3)c2)cc1 [compound 0512] | 0.74 | 1.5 | 14.0 |  | # Cured/#Treated (%) [3, 7]: 0/3; MSD [3, 7]: 8 days; # Cured/#Treated (%) [3, 8]: 0/3; MSD [3, 8]: 18 days; MSD [3, 9]: >30 days; MSD ([3]; mice, 15 mg/kg/day i.p. for 3 days): >30 days
N/C(=N\O)c1ccc(NC(=O)CCCC(=O)Nc2ccc(/C(N)=N/O)cc2)cc1 [compound 0704, N,N′-bis[4-(N-Hydroxyamidino)phenyl]pentanediamide] |  |  |  |  | IC50 ([1]; Trypanosoma brucei): 7300 nM; IC50 [2, 4]: 10000 nM
N=C(N)c1ccc(NC(=O)CCC(=O)Nc2ccc(C(=N)N)cc2)cc1 [compound 0707] | 9000 | 2190 |  |  | 
N=C(N)c1ccc(NC(=O)CCCCCCCC(=O)Nc2ccc(C(=N)N)cc2)cc1 [compound 0708] | 400 | 240 |  |  | 
N=C(N)c1ccc(NC(=O)CCCCCCCCCCC(=O)Nc2ccc(C(=N)N)cc2)cc1 [compound 0711] | 8.4 | 6.6 |  |  | # Cured/#Treated (%) [3, 5]: 0/3^a; MSD [3, 6]: 5 to 10.3 days
N#Cc1ccc(NC(=O)CC(=O)Nc2ccc(C#N)cc2)cc1 [compound 0712] | 5000 | 1600 |  |  | 
N#Cc1ccc(NC(=O)C(=O)Nc2ccc(C#N)cc2)cc1 [compound 0713] | 680 | 340 |  |  | 
O=C(Nc1ccccc1)C(=O)Nc1ccccc1 [compound 0714] |  | 155 |  |  | 
N=C(N)c1cccc(NC(=O)CCCCC(=O)Nc2cccc(C(=N)N)c2)c1 [compound 0715] | 41 | 21 |  |  | 
NC(=O)c1ccc(NC(=O)CCCCC(=O)Nc2ccc(C(N)=O)cc2)cc1 [compound 0716] | 2800 | 1100 |  |  | 
NC(=O)c1cccc(NC(=O)CCCCC(=O)Nc2cccc(C(N)=O)c2)c1 [compound 0717] |  | 1980 |  |  | # Cured/#Treated (%) [3, 5]: 0/3^a; MSD [3, 6]: 5 days
N=C(N)c1ccc(NC(=O)CCCCC(=O)Nc2cccc(C(=N)N)c2)cc1 [compound 0721] | 12.5 | 7 |  |  | 
